Data on 2 molecules can be found in patent publication US7414071B2, “Methods of treatment with selective EP4 receptor agonists” (Pfizer Inc., priority 2002, dated 2008).

One test addresses T1, rat EP4 receptor (Rattus norvegicus, UniProt P43114).
T1 construct: expressed in transfected cells
Description: Whole cell 3H-PGE2 binding with Scatchard analysis in 293S transfectants. Conditions: cell line selected for compound screening. The protocol: Clonal cell lines expressing the maximal number of receptors are chosen following a whole cell ^3H-PGE2 binding assay using unlabeled PGE2 as a competitor. […] Constitutive expression of the receptor in parental 293-S cells is negligible. A stable cell line containing the rat EP4 receptor is grown in Dulbecco's Mosified Eagle Medium/F12 (DMEM/F12) containing 10% fetal bovine serum and G418 (500 μg/ml) to 80% confluency.

The target in the next test is T2, human EP1 receptor (Homo sapiens, UniProt P34995).
T2 construct: expressed in transfected cells; membranes
T2 sequence (P34995 1-402): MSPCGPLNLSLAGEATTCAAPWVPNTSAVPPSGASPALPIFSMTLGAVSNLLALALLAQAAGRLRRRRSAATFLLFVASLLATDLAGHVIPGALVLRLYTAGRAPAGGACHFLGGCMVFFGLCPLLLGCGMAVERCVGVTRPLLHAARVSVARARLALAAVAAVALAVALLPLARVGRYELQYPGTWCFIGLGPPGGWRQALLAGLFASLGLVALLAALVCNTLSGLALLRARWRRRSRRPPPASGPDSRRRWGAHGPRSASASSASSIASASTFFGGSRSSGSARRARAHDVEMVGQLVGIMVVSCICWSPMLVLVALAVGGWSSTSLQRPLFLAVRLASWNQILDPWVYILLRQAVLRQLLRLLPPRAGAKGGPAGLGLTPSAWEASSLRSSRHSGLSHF
Description: Human EP1 receptor binding assay (displacement of 3H-prostaglandin E2 from 293S cell membranes). Conditions: displacement of 3H-prostaglandin E2, 293S membranes. From the text:
(§1) The compounds of Formula I, which are useful in the methods of the present invention, bind to the prostaglandin E2 type 4 receptor (EP4 receptor). The full length coding sequence for the human EP1 receptor is made in accordance with the procedure in Funk et al., Journal of Biological Chemistry, 1993, 268, 26767-26772. The full length rat EP2 receptor is made in accordance with the procedure in Nemoto et al., Prostaglandins and other Lipid Mediators, 1997, 54, 713-725. The full length coding sequence for the human EP3 receptor is made in accordance with the procedure in Regan et al., British Journal of Pharmacology, 1994, 112, 377-385. The full length coding sequence for the rat EP4 receptor is made in accordance with the procedure in Sando et al., Biochem. Biophys. Res. Comm. 1994, 200, 1329-1333. These full length receptors are used to prepare 293S cells expressing the human EP1, rat EP2, human EP3 or rat EP4 receptors.
(§2) The full length receptors described above are used to prepare 293S cells expressing the EP1, EP2, EP3, and EP4 receptors. […]
(§3) Membrane Preparation: All operations are performed at 4° C. […] Pelleted membranes are resuspended to 3-10 mg protein per ml, protein concentration being determined of the method of Bradford [Bradford, M., Anal. Biochem. 1976, 72, 248]. […]
(In general: In a radioligand displacement assay an active substance lowers the binding of a labelled ligand.)

The next test addresses T3, rat EP2 receptor (Rattus norvegicus, UniProt Q62928).
T3 construct: The full length rat EP2 receptor is made in accordance with the procedure in Nemoto et al; expressed in transfected cells; membranes
The test is described as follows: Rat EP2 receptor binding assay (displacement of 3H-prostaglandin E2 from 293S cell membranes). The note with it: displacement of 3H-prostaglandin E2, 293S membranes.
Source text: as §1, §2, §3

In another test the target is T4, human EP3 receptor (Homo sapiens, UniProt P43115).
T4 construct: expressed in transfected cells; membranes
T4 sequence (P43115 1-390): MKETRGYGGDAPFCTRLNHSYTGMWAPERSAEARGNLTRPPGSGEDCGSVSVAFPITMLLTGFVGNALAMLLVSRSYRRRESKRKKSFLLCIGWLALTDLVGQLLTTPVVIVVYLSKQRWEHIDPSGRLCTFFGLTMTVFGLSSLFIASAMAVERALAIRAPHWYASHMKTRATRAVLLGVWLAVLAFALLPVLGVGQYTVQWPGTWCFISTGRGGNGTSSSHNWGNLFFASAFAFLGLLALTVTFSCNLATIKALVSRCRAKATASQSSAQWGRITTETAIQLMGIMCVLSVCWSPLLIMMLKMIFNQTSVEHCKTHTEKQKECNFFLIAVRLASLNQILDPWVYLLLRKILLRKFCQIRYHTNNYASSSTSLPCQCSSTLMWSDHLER
The test is described as follows: Human EP3 receptor binding assay (displacement of 3H-prostaglandin E2 from 293S cell membranes). Conditions: displacement of 3H-prostaglandin E2, 293S membranes.
Source text: as §1, §2, §3

T3 sequence (Q62928 whole entry): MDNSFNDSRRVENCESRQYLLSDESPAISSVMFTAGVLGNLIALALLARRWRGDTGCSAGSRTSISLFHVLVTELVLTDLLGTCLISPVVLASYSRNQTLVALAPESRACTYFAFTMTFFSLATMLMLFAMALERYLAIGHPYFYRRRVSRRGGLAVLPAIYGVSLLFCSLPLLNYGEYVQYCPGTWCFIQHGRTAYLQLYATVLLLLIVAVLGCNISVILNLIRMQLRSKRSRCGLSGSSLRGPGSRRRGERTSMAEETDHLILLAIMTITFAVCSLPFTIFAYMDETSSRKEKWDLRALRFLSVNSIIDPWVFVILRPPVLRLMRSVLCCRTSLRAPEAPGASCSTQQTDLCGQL
T1 sequence (P43114 whole entry): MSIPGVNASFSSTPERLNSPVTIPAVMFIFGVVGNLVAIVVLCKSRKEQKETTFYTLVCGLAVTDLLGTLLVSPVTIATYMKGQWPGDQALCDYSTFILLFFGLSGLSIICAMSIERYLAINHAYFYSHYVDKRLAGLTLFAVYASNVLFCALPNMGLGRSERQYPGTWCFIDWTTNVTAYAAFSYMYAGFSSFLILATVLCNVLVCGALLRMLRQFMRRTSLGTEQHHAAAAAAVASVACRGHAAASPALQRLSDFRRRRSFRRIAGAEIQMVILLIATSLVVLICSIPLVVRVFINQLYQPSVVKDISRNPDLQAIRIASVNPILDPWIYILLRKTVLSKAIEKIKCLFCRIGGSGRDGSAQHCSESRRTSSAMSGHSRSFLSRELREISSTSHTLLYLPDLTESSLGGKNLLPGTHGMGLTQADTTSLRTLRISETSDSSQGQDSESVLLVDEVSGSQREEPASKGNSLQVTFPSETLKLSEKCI

`CCCCC[C@H](O)/C=C/[C@H]1[C@H](O)CC(=O)[C@@H]1C/C=C\CCCC(=O)O` [PGE2, Prostaglandin E2] had an equilibrium dissociation constant (Kd) on rat EP4 receptor of 2.9 nM.

For `O=C(O)c1ccc(CCCN2C(=O)CC[C@@H]2CC[C@@H](O)Cc2cccc(C(F)(F)F)c2)s1` [Compound 3M], the concentration for half-maximal inhibition (IC50) on human EP1 receptor is greater than 1000 nM; on rat EP2 receptor it was 463 nM; at human EP3 receptor, greater than 1000 nM.

In general, Kd refers to the free concentration of one partner at which half of the binding sites on the other are occupied at equilibrium, for simple one-to-one binding. A high value points to lower affinity. Usually IC50 stands for the concentration at which inhibition is half-maximal. A high value points to weaker potency in that assay.
